Assay results from patent US9162993B2, “Preparation and pharmaceuticals of biphenyl benzamide-derived derivatives” (NATIONAL DEFENSE MEDICAL CENTER, priority 2012, dated 2015).

Experiments:
[1] = test system: RANKL-induced osteoclast differentiation in RAW 264.7 cells; assay: TRAP staining, RANKL-induced osteoclast differentiation (TRAP+ multinucleated cells); type: cell-based, murine; conditions: Mus musculus, RAW264.7; RAW 264.7 cells, RANKL (100 ng/mL), compounds at 5 μM, TRAP-positive multinucleated cells; read-out: Inhibition of MNCs (%)
Method: (§1) The compounds 1 to 24 of the present invention is tested by three pharmacological activity tests as follows: (1) MTT assay to test the RAW264.7 cell (murine monocyte/macrophage cell line) viability; (2) Tartrate-resistant acid phosphatase (TRAP) staining and activity analysis to investigate the cell differentiation activity; (3) The activity test of bone resorption (Pit formation assay).
(§2) The synthesized difunisal derivatives, compounds 1 to 24, were pharmacologically tested to be identified the relationship between their structure and activity. Cell viability was measured by MTT assay in RAW 264.7 cells upon treatment with compounds at 5 μM. CC50 is the cytotoxic concentration that produces 50% (CC50) cell death. […] The multinucleated osteoclasts could be formed by RANKL-induced macrophage cell line […]. RAW 264.7 cells were cultured with the indicated in the presence of drug and RANKL (100 ng/mL). Numbers of TRAP-positive (TRAP^+) multinucleated cells (MNCs) were counted in the presence of RANKL to identify the relationship between osteoclast and bone formation. […] The compound 16 performed the best inhibitory effect in the TRAP staining. The compound 16 was a derivate from compound 4 and its structure was related to compound 4. Therefore, the compound 4 and 16 were performed by TRAP assay to evaluate the effect on osteoclast differentiation by different concentration of compounds. […] According to above result, it can be speculated that: (1) Due to different substitutes on benzene ring of difunisal, the inhibitory ability of RANKL-induced osteoclast differentiation would be different. (2) Due to the electron-withdrawing group substitutes of R1 and R4 on benzene ring, or electron-withdrawing group substitutes derivatives of R2 on benzene ring, such as compound 4. (R1═F and R4═F), compound 6 (R2═CF3), compound 9 (R2═CN) and compound 16 (R1═F and R4═F), (3) compound 4 (R1═F and R4═F) and compound 6 (R2═CF3), a cyclic derivate compound 16 (R1═F and R4═F) and compound 18 (R2═CF3), the inhibitory activity would be stronger.

[2] = test system: NO production; assay: Measurement of NO concentrations (Griess reaction) in porcine chondrocytes; type: cell-based; conditions: Sus scrofa, Chondrocyte, nitrite in supernatants, read-out: anti-inflammatory IC50 (μM) on NO production
Method: Porcine cartilage was obtained from the hind leg joints of pigs. The synthesis of chondrocytes from cartilage was performed according to our previous report. After enzymatic digestion of articular cartilage with 2 mg/mL protease in serum-free Dulbecco's modified Eagle's medium (DMEM)/antibiotics, the specimens were then digested overnight with 2 mg/mL collagenase I and 0.9 mg/ml, hyaluronidase in DMEM containing 10% fetal bovine serum (FBS). The cells were collected, passed through a cell strainer (Becton Dickinson, Mountain View, Calif., USA), and cultured in DMEM containing 10% […] and antibiotics for 3-4 days before use.
The measurement of NO release was reflected by determination of its stable end product, nitrite, in supernatants. The Griess reaction was performed with the concentrations of nitrite measured by a spectrophotometer. In brief, an aliquot (100 μL) of culture supernatant was incubated with 50 μL of 0.1% sulfanilamide in 5% phosphoric acid and 50 μL of 0.1% N-1-naphthyl-ethylenediamine dihydrochloride. After 10 min of incubation at room temperature, the absorbance was measured at 550 nm wavelength with a plate reader (recall, Grodig, […]).

[3] = test system: RAW 264.7 cells; assay: MTT assay, RAW264.7 cell viability; type: cell-based; conditions: MTT assay, compounds at 5 μM
Method: as §1, §2

[4] = MTT assay, RAW264.7 cell viability; type: cell-based; conditions: mouse; RAW 264.7 cells; cytotoxic concentration that produces 50% cell death
Method: as §1, §2

| Structure (SMILES) | inhibition at 5 µM [1] [%] | IC50 [2] [µM] | Cell viability (%) [3] [%] | CC50 [4] [µM] |
| --- | --- | --- | --- | --- |
| O=C(O)c1cc(-c2ccc(F)cc2F)ccc1O [Diflunisal, reference compound] | 23.9 ± 1.88 | > 10 | 103.82 ± 1.78 | > 20 |
| O=C(Nc1ccc(Cl)cc1F)c1cc(-c2ccc(F)cc2F)ccc1O [compound 1, N-(4-chloro-2-fluorophenyl)-2′,4′-difluoro-4-hydroxybiphenyl-3-carboxamide] | 44.3 ± 7.93 | 7.94 | 77.54 ± 1.17 | 17.9 |
| O=C(Nc1ccc(F)cc1F)c1cc(-c2ccc(F)cc2F)ccc1O [compound 2, N-(2,4-difluorophenyl)-2′,4′-difluoro-4-hydroxybiphenyl-3-carboxamide] | 32.2 ± 5.58 | 0.95 | 109.62 ± 3.37 | > 20 |
| O=C(Nc1ccc(F)c(F)c1)c1cc(-c2ccc(F)cc2F)ccc1O [compound 3] | 47.4 ± 5.58 | 0.79 | 78.42 ± 3.79 | 14.6 |
| O=C(Nc1ccccc1C(F)(F)F)c1cc(-c2ccc(F)cc2F)ccc1O [compound 5] | 42.8 ± 6.51 | > 10 | 99.37 ± 3.71 | > 20 |
| O=C(Nc1cccc(C(F)(F)F)c1)c1cc(-c2ccc(F)cc2F)ccc1O [compound 6, 2′,4′-difluoro-4-hydroxy-N-(3-(trifluoromethyl)phenyl)[1,1′-biphenyl]-3-carboxamide] | 59.2 ± 2.28 | 0.71 | 96.73 ± 1.18 | 14.3 |
| O=C(Nc1ccc(C(F)(F)F)cc1)c1cc(-c2ccc(F)cc2F)ccc1O [compound 7, 2′,4′-difluoro-4-hydroxy-N-(4-(trifluoromethyl)phenyl)-[1,1′-biphenyl]-3-carboxamide] | 51.5 ± 6.25 | 0.64 | 85.22 ± 3.83 | 10.4 |
| C#Cc1cccc(NC(=O)c2cc(-c3ccc(F)cc3F)ccc2O)c1 [compound 8, N-(3-ethynylphenyl)-2′,4′-difluoro-4-hydroxy-[1,1′-biphenyl]-3-carboxamide] | 40.6 ± 2.01 | 2.45 | 62.95 ± 0.85 | > 20 |
| N#Cc1cccc(NC(=O)c2cc(-c3ccc(F)cc3F)ccc2O)c1 [compound 9, N-(3-cyanophenyl)-2′,4′-difluoro-4-hydroxy-[1,1′-biphenyl]-3-carboxamide] | 71.3 ± 3.39 | > 10 | 72.15 ± 0.36 | 12.3 |
| N#Cc1ccc(NC(=O)c2cc(-c3ccc(F)cc3F)ccc2O)cc1 [compound 10, N-(4-cyanophenyl)-2′,4′-difluoro-4-hydroxy-[1,1′-biphenyl]-3-carboxamide] | 13.9 ± 1.23 | > 10 | 96.24 ± 2.29 | 14.4 |
| COc1ccc(NC(=O)c2cc(-c3ccc(F)cc3F)ccc2O)cc1OC [compound 11, N-(3,4-dimethoxyphenyl)-2′,4′-difluoro-4-hydroxy-[1,1′-biphenyl]-3-carboxamid] | 51.9 ± 6.5 | 1.5 | 98.87 ± 2.06 | > 20 |
| COc1cccc(NC(=O)c2cc(-c3ccc(F)cc3F)ccc2O)c1 [compound 12, 2′,4′-difluoro-4-hydroxy-N-(3-methoxyphenyl)-[1,1′-biphenyl]-3-carboxamide] | 40.8 ± 2.65 | 2.24 | 104.90 ± 2.62 | > 20 |
| O=c1oc2ccc(-c3ccc(F)cc3F)cc2c(=O)n1-c1ccc(Cl)cc1F [compound 13, 3-(4-chloro-2-fluorophenyl)-6-(2,4-difluorophenyl)-2H-benzo[e][1,3]oxazine-2,4(3H)-dione] | 19.4 ± 1.4 | 1.08 | 96.22 ± 0.53 | > 20 |
| O=c1oc2ccc(-c3ccc(F)cc3F)cc2c(=O)n1-c1ccc(F)cc1F [compound 14, 3,6-bis(2,4-difluorophenyl)-2H-benzo[e][1,3]oxazine-2,4(3H)-dione] | 42.3 ± 6.62 | 1.26 | 96.49 ± 1.86 | 12.7 |
| O=c1oc2ccc(-c3ccc(F)cc3F)cc2c(=O)n1-c1ccc(F)c(F)c1 [compound 15] | 17.4 ± 7.49 | 0.61 | 72.15 ± 0.43 | 9.96 |
| O=c1oc2ccc(-c3ccc(F)cc3F)cc2c(=O)n1-c1ccccc1C(F)(F)F [compound 17, 6-(2,4-difluorophenyl)-3-(2-(trifluoromethy)phenyl)-2H-benzo[e][1,3]oxazine-2,4(3H)-dione] | 31.6 ± 4 | > 10 | 95.53 ± 3.86 | 15.1 |
| O=c1oc2ccc(-c3ccc(F)cc3F)cc2c(=O)n1-c1cccc(C(F)(F)F)c1 [compound 18, 6-(2,4-difluorophenyl)-3-(3-(trifluoromethyl)phenyl)-2H-benzo[e][1,3]oxazine-2,4(3H)-dione] | 62.9 ± 2.65 | 0.55 | 100.13 ± 0.94 | 13 |
| O=c1oc2ccc(-c3ccc(F)cc3F)cc2c(=O)n1-c1ccc(C(F)(F)F)cc1 [compound 19, 6-(2,4-difluorophenyl)-3-(4-(trifluoromethyl)phenyl)-2H-benzo[e][1,3]oxazine-2,4(3H)-dione] | 16.9 ± 4.61 | 0.75 | 103.01 ± 2.51 | 15.5 |
| C#Cc1cccc(-n2c(=O)oc3ccc(-c4ccc(F)cc4F)cc3c2=O)c1 [compound 20, 6-(2,4-difluorophenyl)-3-(3-ethynylphenyl)-2H-benzo[e][1,3]oxazine-2,4(3H)-dione] | 57.5 ± 3.25 | 1.63 | 88.38 ± 4.65 | 11 |
| N#Cc1cccc(-n2c(=O)oc3ccc(-c4ccc(F)cc4F)cc3c2=O)c1 [compound 21, 3-(6-(2,4-difluorophenyl)-2,4-dioxo-2H-benzo[e][1,3]oxazin-3(4H)-yl)benzonitrile] | 34 ± 6.98 | > 10 | 102.79 ± 1.93 | 14.9 |
| N#Cc1ccc(-n2c(=O)oc3ccc(-c4ccc(F)cc4F)cc3c2=O)cc1 [compound 22, 4-(6-(2,4-difluorophenyl)-2,4-dioxo-2H-benzo[e][1,3]oxazin-3(4H)-yl)benzonitrile] | 29.4 ± 5.48 | 0.55 | 108.33 ± 1.10 | > 20 |
| COc1ccc(-n2c(=O)oc3ccc(-c4ccc(F)cc4F)cc3c2=O)cc1OC [compound 23, 6-(2,4-difluorophenyl)-3-(3,4-dimethoxyphenyl)-2H-benzo[e][1,3]oxazine-2,4(3H)-dione] | 21.2 ± 2.49 | 0.47 | 103.05 ± 4.03 | > 20 |
| COc1cccc(-n2c(=O)oc3ccc(-c4ccc(F)cc4F)cc3c2=O)c1 [compound 24, 6-(2,4-difluorophenyl)-3-(3-methoxyphenyl)-2H-benzo[e][1,3]oxazine-2,4(3H)-dione] | 30.8 ± 5.77 | 1.95 | 105.53 ± 4.7 | > 20 |
